Where two headings read alike, the source gives them in different places. GST = glutathione S-transferase fusion tag
T1: SGIP1 μHD (residues 552 to 828) (Homo sapiens, UniProt Q9BQI5)
T1 construct: the SGIP1 μHD (residues 552 to 828); GST (N, cleaved yes); made in house; host or cells: Escherichia coli BL21-Gold (DE3) or Rosetta2
T1 sequence (Q9BQI5 552-828): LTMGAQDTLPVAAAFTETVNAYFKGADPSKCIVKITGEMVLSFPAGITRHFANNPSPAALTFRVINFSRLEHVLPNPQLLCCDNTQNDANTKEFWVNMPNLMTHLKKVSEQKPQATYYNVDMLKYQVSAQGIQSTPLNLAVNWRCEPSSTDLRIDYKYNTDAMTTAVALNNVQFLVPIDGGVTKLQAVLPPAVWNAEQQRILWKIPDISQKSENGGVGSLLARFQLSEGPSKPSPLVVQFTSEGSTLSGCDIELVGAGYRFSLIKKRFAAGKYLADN

T2: SGIP1 µ homology domain (µHD), residues 552 to 828 (human, UniProt Q9BQI5-1 552-828)
T2 construct: pGEX-6P-1 construct cut with 3C protease; also called SGIP1 µHD; human SGIP1 µHD (aa552–828); source: E. coli BL21-Gold (DE3) or Rosetta2, purified (Glutathione Sepharose 4B, 3C protease cleavage, Superdex 200)
T2 sequence (looked up): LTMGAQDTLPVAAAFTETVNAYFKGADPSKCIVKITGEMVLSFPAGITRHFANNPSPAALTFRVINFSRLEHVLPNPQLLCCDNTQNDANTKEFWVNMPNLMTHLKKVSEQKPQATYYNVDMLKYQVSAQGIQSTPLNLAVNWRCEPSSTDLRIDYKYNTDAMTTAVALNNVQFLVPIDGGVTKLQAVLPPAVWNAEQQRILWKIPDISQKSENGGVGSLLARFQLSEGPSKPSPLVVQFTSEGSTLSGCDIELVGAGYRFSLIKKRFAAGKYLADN


Legend:
[1] = biological target: T1, SGIP1 μHD (residues 552 to 828); test: ITC of Eps15 fragments with the SGIP1 μHD; assay type: binding; conditions: for Kd: 50 mM Tris-HCl pH 8.0, 50 mM NaCl, global fit of two runs
Method: For the majority of the ITC experiments, the SGIP1 μHD, its mutants, or the FCHo1 μHD, in 50 mM Tris-HCl buffer (pH 8.0) containing 50 mM NaCl, was loaded in the sample cell, in a volume of 1.42 ml, and titrated with various Eps15-derived fragments or peptides in the same buffer, with an initial 5 μl injection and subsequent 10 μl injections, for a total of 25 injections. The titrations were performed while the samples were stirred at 310 r.p.m. at 25 °C. Each injection was followed by an interval of 4 min, to allow baseline stabilization. For the other ITC experiments indicated in Supplementary Table 2, the Eps15-derived fragments or peptides in the sample cell were titrated with the SGIP1 or FCHo1 μHD. All ITC experiments were performed on a VP-ITC microcalorimeter (MicroCal, LLC) and repeated twice, and the data were processed with the program NITPIC[42]. The two data sets from each ITC experiment were analyzed by global weighted least-squares fitting with the program SEDPHAT[43]. Figures for the ITC data were created with the program GUSSI (http://biophysics.swmed.edu/MBR/software.html). To obtain the values of the traditional stoichiometric parameter N in our ITC data analyses (Supplementary Table 2), we used the values of the parameters of the incompetent fractions of proteins and ligands. […] The values of the incompetent fractions are between 0 and 1, whereas the other parameter affecting the traditional parameter N, the number of sites, was fixed as 1 and 2, for the single- and two-site models, respectively. Thus, in the two-site model, the values of N for the first and second sites are identical in our ITC data analyses (Supplementary Table 2).

[2] = biological target: T2, SGIP1 µ homology domain (µHD), residues …; test: ITC; µHD, µHD mutant or α-adaptin appendage domain in the sample cell, titrated with the Eps15 fragment or peptide; 50 mM Tris-HCl (pH 8.0), 50 mM NaCl, 25 °C; VP-ITC; two data sets fitted globally (NITPIC, SEDPHAT); single-site model; conditions: both partners purified
[3] = 25 °C, μHD in sample cell titrated with Eps15 fragment, single-site model, ± 68.3% confidence interval
[4] = 25 °C, μHD in cell titrated with fragment, single-site model
[5] = 25 °C, μHD in cell titrated with fragment, single-site model, ± 68.3% confidence interval
[6] = μHD in cell titrated with fragment, single-site model, ± 68.3% confidence interval
[7] = 25 °C, fragment in cell titrated with μHD, two-site model, first site
[8] = 25 °C, fragment in cell titrated with μHD, two-site model, second site

Row | Molecule | -TΔS [1, 4] [kcal/mol] | ΔG [1, 4] [kcal/mol] | ΔH [1, 5] [kcal/mol] | also measured
1 | Eps15-640–649P646L: P646L mutant of Eps15-640–649 (Ac-YDPFGGDLFKG-NH2) | – | – | – | Kd [1, 3]: below detection limit
2 | Ac-YEPFGGDPFKG-NH2 [Eps15-640–649D640E] | -0.851 | -4.759 | -3.908 ± 0.595 | –
3 | Eps15-643–650: Eps15 fragment, residues 643–650, 1 DPF motif (Ac-YGGDPFKGS-NH2) | – | – | – | Kd [1, 3]: below detection limit
4 | Ac-YSDPFVGSDPFKDDPFG-NH2 [Eps15-622–637] | 1.967 | -7.247 | -9.214 ± 0.138 | binding to the SGIP1 μHD (in words) [1]: significantly reduced affinity as compared with that of Eps15-530–896; N (binding ratio of Eps15 fragment to μHD) [1, 6]: 0.85 ± 0.01
5 | Eps15-640–649P641L: P641L mutant of Eps15-640–649 (Ac-YDLFGGDPFKG-NH2) | – | – | – | Kd [1, 3]: below detection limit
6 | Ac-YDPFGGNPFKG-NH2 [Eps15-640–649D645N] | -1.138 | -5.642 | -4.504 ± 0.155 | –
7 | Ac-YKDDPFGKIDPFGG-NH2 [Eps15-632–644] | -0.071 | -5.584 | -5.513 ± 0.12 | –
8 | Ac-YDPWGGDPFKG-NH2 [Eps15-640–649F642W] | 2.227 | -4.965 | -7.192 ± 0.527 | –
9 | Ac-YNPFGGDPFKG-NH2 [Eps15-640–649D640N] | -0.585 | -5.441 | -4.856 ± 0.193 | –
10 | Eps15-640–649D645E: D645E mutant of Eps15-640–649 (Ac-YDPFGGEPFKG-NH2) | – | – | – | Kd [1, 3]: below detection limit
11 | Eps15-640–649F647W: F647W mutant of Eps15-640–649 (Ac-YDPFGGDPWKG-NH2) | – | – | – | Kd [1, 3]: below detection limit
12 | Ac-YDPFKGSDPFA-NH2 [Eps15-645–654] | 3.566 | -6.344 | -9.91 ± 0.683 | N (binding ratio of Eps15 fragment to μHD) [1, 6]: 0.75 ± 0.02
13 | Ac-YSDPFKDDPFGKIDPFGG-NH2 [Eps15-628–644] | 1.615 | -6.404 | -8.019 ± 0.169 | binding to the SGIP1 μHD (in words) [1]: significantly weaker affinity than Eps15-622–637 and Eps15-640–654; N (binding ratio of Eps15 fragment to μHD) [1, 6]: 0.76 ± 0.01
14 | Ac-YSTDPFATSSTDPFSA-NH2 [Eps15-662–676] | 1.395 | -5.327 | -6.722 ± 1.053 | binding to the SGIP1 μHD (in words) [1]: weakly bound to the μHD; Strength of affinity ([1]; human SGIP1 µHD (aa552–828), Supplementary Table 3, This study): low
15 | Eps15-797–807: Eps15 fragment spanning residues 797 to 807, 2 DPF motifs (Ac-YPDPFKLNDPFQ-NH2) | – | – | – | binding to the SGIP1 μHD (in words) [1]: did not; Kd [1, 3]: below detection limit
16 | Eps15-650–659: Eps15 fragment, residues 650–659, 1 DPF motif (Ac-YSDPFASDCFF-NH2) | – | – | – | Kd [1, 3]: below detection limit
17 | Eps15-618–648: Eps15 fragment containing the first five DPF motifs of Eps15-618–654 (DFFQSDPFVGSDPFKDDPFGKIDPFGGDPFK; UniProt P42566 618-648, looked up, fragment) | 0.581 | -8.722 | -9.303 ± 0.257 | N (binding ratio of Eps15 fragment to μHD) [1, 6]: 0.71± 0.02
18 | Ac-YSDPFKDDPFGKI-NH2 [Eps15-628–639] | 1.528 | -4.882 | -6.41 ± 0.646 | –
19 | Ac-YKDDPFGKIDPFGGDPFKGSDPFA-NH2 [Eps15-632–654] | 1.453 | -7.491 | -8.944 ± 0.142 | N (binding ratio of Eps15 fragment to μHD) [1, 6]: 0.70 ± 0.01
20 | Ac-YSDPFKDDPFGKIDPFGGDPFKGSDPFA-NH2 [Eps15-628–654] | 1.711 | -8.135 | -9.846 ± 0.223 | Kd ([1]; 25 °C, μHD in sample cell titrated with Eps15 fragment, single-site model, ± 68.3% confidence interval, read-out: Kd): 1.1 ± 0.1 µM; N (binding ratio of Eps15 fragment to μHD) [1, 6]: 0.67 ± 0.01
21 | GST-Eps15-595–660: GST-tagged Eps15 fragment, residues 595–660, 7 DPF motifs (protein, UniProt P42566 595-660, looked up, fragment) {GST}-SKEEDPFNVDSSSLTGPVADTNLDFFQSDPFVGSDPFKDDPFGKIDPFGGDPFKGSDPFASDCFFR | – | – | – | Kd ([1]; 25 °C, Eps15 fragment in cell titrated with SGIP1 μHD, two-site model, first (higher-affinity) site, ± 68.3% confidence interval, read-out: Kd): 0.046 ± 0.015 µM; Kd ([1]; 25 °C, Eps15 fragment in cell titrated with SGIP1 μHD, two-site model, second site, 68.3% confidence interval, read-out: Kd, second site): 16.6 ± 4.1 µM; -TΔS [1, 7]: -2.45 kcal/mol; ΔG [1, 7]: -10.012 kcal/mol; ΔH ([1]; 25 °C, fragment in cell titrated with μHD, two-site model, first site, ± 68.3% confidence interval): -7.562 ± 0.103 kcal/mol; -TΔS, second site [1, 8]: 0.328 kcal/mol; ΔG, second site [1, 8]: -6.52 kcal/mol; ΔH, second site ([1]; 25 °C, fragment in cell titrated with μHD, two-site model, second site, 68.3% confidence interval): -6.848 ± 0.772 kcal/mol; N (binding ratio of Eps15 fragment to μHD) ([1]; fragment in cell titrated with μHD, two-site model, first site (N identical for both sites), ± 68.3% confidence interval): 1.17 ± 0.02; N, second site ([1]; fragment in cell titrated with μHD, two-site model, second site (N identical for both sites), ± 68.3% confidence interval): 1.17 ± 0.02
22 | Ac-YSDPFKDDPFGKI-NH2 (artificial N-terminal Tyr; source: synthetic peptide (Eurofins Genomics)) [Eps15-628–639] | – | – | – | Kd [2]: 264 µM
23 | GST-Eps15-530–594: GST-tagged Eps15 fragment, residues 530–594, 0 DPF motifs (protein) {GST}-STSSSETANLNEHVEGQSNLESEPIHQESPARSSPELLPSGVTDENEVTTAVTEKVCSELDNNRH | – | – | – | Kd [1, 3]: below detection limit
24 | Ac-YSDPFKDDPFGKIDPFGG-NH2 (artificial N-terminal Tyr; source: synthetic peptide (Eurofins Genomics)) [Eps15-628–644] | – | – | – | Kd [2]: 20.2 µM; stoichiometry N [2]: 0.76
25 | Ac-YKDDPFGKIDPFGG-NH2 (artificial N-terminal Tyr; human Eps15 residues 632-644; source: synthetic peptide (Eurofins Genomics)) [Eps15-632–644] | – | – | – | Kd [2]: 80.8 µM
26 | Ac-YKDDPFGKIDPFGGDPFKGSDPFA-NH2 (artificial N-terminal Tyr; source: synthetic peptide (Eurofins Genomics)) [Eps15-632–654] | – | – | – | Kd [2]: 3.2 µM; stoichiometry N [2]: 0.7
27 | GPLGSYDFFQSDPFVGSDPFKDDPFGKIDPFGGDPFK (domain or fragment, human, source: E. coli, expressed and purified in the same manner as the SGIP1 µHD) [Eps15-618–648] | – | – | – | stoichiometry N [2]: 0.71
